How the values were obtained:
Assay type in all cases: functional
NCI-H522 [1] = experiment: Cytotoxicity against human NCI-H522 cells assessed as cell growth at 0.01 uM after 48 hrs by sulforhodamine B assay relative to control; conditions: NCI-H522, 48 h, read-out: Activity
SK-MEL-5 [2] = experiment: Cytotoxicity against human SK-MEL-5 cells assessed as cell growth at 1 uM after 48 hrs by sulforhodamine B assay relative to control; conditions: SK-MEL-5, 48 h, read-out: Activity
NCI-H460 = experiment: Cytotoxicity against human NCI-H460 cells assessed as cell growth at 100 uM after 48 hrs by sulforhodamine B assay relative to control; conditions: NCI-H460, 48 h, read-out: Activity
RPMI-8226 = experiment: Cytotoxicity against human RPMI8226 cells assessed as growth inhibition after 48 hrs by sulforhodamine B assay; conditions: RPMI-8226, 48 h
SN12C = experiment: Cytotoxicity against human SN12C cells assessed as cell growth at 100 uM after 48 hrs by sulforhodamine B assay relative to control; conditions: read-out: Activity
HCT-116 = experiment: Cytotoxicity against human HCT116 cells assessed as cell growth at 10 uM after 48 hrs by sulforhodamine B assay relative to control; conditions: HCT-116, 48 h, read-out: Activity
UACC-62 = experiment: Cytotoxicity against human UACC62 cells assessed as cell growth at 10 uM after 48 hrs by sulforhodamine B assay relative to control; conditions: UACC-62, 48 h, read-out: Activity
DU-145 = experiment: Cytotoxicity against human DU145 cells assessed as cell growth at 0.01 uM after 48 hrs by sulforhodamine B assay relative to control; conditions: DU-145, 48 h, read-out: Activity
A549 [3] = experiment: Cytotoxicity against human A549/ATCC cells assessed as cell growth at 100 uM after 48 hrs by sulforhodamine B assay relative to control; conditions: A549, 48 h, read-out: Activity
SK-MEL-5 [4] = experiment: Cytotoxicity against human SK-MEL-5 cells assessed as cell growth at 0.1 uM after 48 hrs by sulforhodamine B assay relative to control; conditions: SK-MEL-5, 48 h, read-out: Activity
HCT-15 = experiment: Cytotoxicity against human HCT15 cells assessed as cell growth at 10 uM after 48 hrs by sulforhodamine B assay relative to control; conditions: HCT-15, 48 h, read-out: Activity
MDA-MB-231 = experiment: Cytotoxicity against human MDA-MB-231 cells assessed as cell growth at 10 uM after 48 hrs by sulforhodamine B assay relative to control; conditions: MDA-MB-231, 48 h, read-out: Activity
NCI-H23 [5] = experiment: Cytotoxicity against human NCI-H23 cells assessed as cell growth at 10 uM after 48 hrs by sulforhodamine B assay relative to control; conditions: NCI-H23, 48 h, read-out: Activity
NCI-H23 [6] = experiment: Cytotoxicity against human NCI-H23 cells assessed as cell growth at 0.1 uM after 48 hrs by sulforhodamine B assay relative to control; conditions: NCI-H23, 48 h, read-out: Activity
K562 = experiment: Cytotoxicity against human K562 cells assessed as cell growth at 0.1 uM after 48 hrs by sulforhodamine B assay relative to control; conditions: K562, 48 h, read-out: Activity
SW-620 [7] = experiment: Cytotoxicity against human SW620 cells assessed as cell growth at 0.1 uM after 48 hrs by sulforhodamine B assay relative to control; conditions: SW-620, 48 h, read-out: Activity
SNB-19 = experiment: Cytotoxicity against human SNB19 cells assessed as growth inhibition after 48 hrs by sulforhodamine B assay; conditions: SNB-19, 48 h
SF-268 = experiment: Cytotoxicity against human SF268 cells assessed as cell growth at 1 uM after 48 hrs by sulforhodamine B assay relative to control; conditions: SF-268, 48 h, read-out: Activity
SW-620 [8] = experiment: Cytotoxicity against human SW620 cells assessed as cell growth at 10 uM after 48 hrs by sulforhodamine B assay relative to control; conditions: SW-620, 48 h, read-out: Activity
CCRF-CEM = experiment: Cytotoxicity against human CCRF-CEM cells assessed as cell growth at 10 uM after 48 hrs by sulforhodamine B assay relative to control; conditions: read-out: Activity
A549 [9] = experiment: Cytotoxicity against human A549/ATCC cells assessed as cell growth at 10 uM after 48 hrs by sulforhodamine B assay relative to control; conditions: A549, 48 h, read-out: Activity
NCI-H322M = experiment: Cytotoxicity against human NCI-H322M cells assessed as cell growth at 0.01 uM after 48 hrs by sulforhodamine B assay relative to control; conditions: read-out: Activity
KM12 = experiment: Cytotoxicity against human KM12 cells assessed as cell growth at 0.01 uM after 48 hrs by sulforhodamine B assay relative to control; conditions: KM12, 48 h, read-out: Activity
PC-3 = experiment: Cytotoxicity against human PC3 cells assessed as cell growth at 0.1 uM after 48 hrs by sulforhodamine B assay relative to control; conditions: PC-3, 48 h, read-out: Activity
COLO 205 [10] = experiment: Cytotoxicity against human COLO205 cells assessed as cell growth at 0.1 uM after 48 hrs by sulforhodamine B assay relative to control; conditions: COLO 205, 48 h, read-out: Activity
ACHN [11] = experiment: Cytotoxicity against human ACHN cells assessed as cell growth at 10 uM after 48 hrs by sulforhodamine B assay relative to control; conditions: read-out: Activity
NCI-H522 [12] = experiment: Cytotoxicity against human NCI-H522 cells assessed as cell growth at 1 uM after 48 hrs by sulforhodamine B assay relative to control; conditions: NCI-H522, 48 h, read-out: Activity
MDA-MB-468 = experiment: Cytotoxicity against human MDA-MB-468 cells assessed as cell growth at 10 uM after 48 hrs by sulforhodamine B assay relative to control; conditions: MDA-MB-468, 48 h, read-out: Activity
HL-60(TB) = experiment: Cytotoxicity against human HL-60(TB) cells assessed as cell growth at 100 uM after 48 hrs by sulforhodamine B assay relative to control; conditions: HL-60, 48 h, read-out: Activity
ACHN [13] = experiment: Cytotoxicity against human ACHN cells assessed as cell growth at 1 uM after 48 hrs by sulforhodamine B assay relative to control; conditions: read-out: Activity
BT-549 = experiment: Cytotoxicity against human BT549 cells assessed as cell growth at 0.1 uM after 48 hrs by sulforhodamine B assay relative to control; conditions: BT-549, 48 h, read-out: Activity
COLO 205 [14] = experiment: Cytotoxicity against human COLO205 cells assessed as cell growth at 10 uM after 48 hrs by sulforhodamine B assay relative to control; conditions: COLO 205, 48 h, read-out: Activity
SK-MEL-5 [15] = experiment: Cytotoxicity against human SK-MEL-5 cells assessed as growth inhibition after 48 hrs by sulforhodamine B assay; conditions: SK-MEL-5, 48 h
M14 = experiment: Cytotoxicity against human M14 cells assessed as cell growth at 0.01 uM after 48 hrs by sulforhodamine B assay relative to control; conditions: M14, 48 h, read-out: Activity
OVCAR-4 = experiment: Cytotoxicity against human OVCAR4 cells assessed as cell growth at 1 uM after 48 hrs by sulforhodamine B assay relative to control; conditions: OVCAR-4, 48 h, read-out: Activity
NCI-H23 [16] = experiment: Cytotoxicity against human NCI-H23 cells assessed as cell growth at 100 uM after 48 hrs by sulforhodamine B assay relative to control; conditions: NCI-H23, 48 h, read-out: Activity

Q: With `COc1ccc(C(=O)/C=C/c2cc(-c3ccc4c(c3)OCO4)n[nH]2)cc1OC` as the compound, how does the growth at 0.01 µM (NCI-H522 [1]) read?
A: 85%

Q: What about the growth at 1 µM (SK-MEL-5 [2]) of the same compound?
A: 95%

Q: What about the growth at 100 µM (NCI-H460) of the same compound?
A: -81%

Q: And the LC50 (RPMI-8226)?
A: > 100 µM

Q: What about the TGI (RPMI-8226) of the same compound?
A: 5.24 µM

Q: And the growth at 100 µM (SN12C)?
A: -73%

Q: And the growth at 10 µM (HCT-116)?
A: -9%

Q: And the growth at 10 µM (UACC-62)?
A: 19%

Q: What about the growth at 0.01 µM (DU-145) of the same compound?
A: 101%

Q: What about the growth at 100 µM (A549 [3]) of the same compound?
A: -14%

Q: And the growth at 0.1 µM (SK-MEL-5 [4])?
A: 97%

Q: What about the growth at 10 µM (HCT-15) of the same compound?
A: 6%

Q: And the growth at 10 µM (MDA-MB-231)?
A: -14%

Q: What about the growth at 10 µM (NCI-H23 [5]) of the same compound?
A: 28%

Q: And the growth at 0.1 µM (NCI-H23 [6])?
A: 89%

Q: And the growth at 0.1 µM (K562)?
A: 96%

Q: What about the growth at 0.1 µM (SW-620 [7]) of the same compound?
A: 95%

Q: What about the TGI (SNB-19) of the same compound?
A: 15.2 µM

Q: What about the CC50 (SNB-19; read-out: LC50 (the source's name)) of the same compound?
A: 40.8 µM

Q: And the growth at 1 µM (SF-268)?
A: 92%

Q: What about the growth at 10 µM (SW-620 [8]) of the same compound?
A: -43%

Q: And the growth at 10 µM (CCRF-CEM)?
A: -2%

Q: What about the growth at 10 µM (A549 [9]) of the same compound?
A: 3%

Q: And the growth at 0.01 µM (NCI-H322M)?
A: 93%

Q: And the growth at 0.01 µM (KM12)?
A: 99%

Q: What about the growth at 0.1 µM (PC-3) of the same compound?
A: 95%

Q: And the growth at 0.1 µM (COLO 205 [10])?
A: 103%

Q: And the growth at 10 µM (ACHN [11])?
A: 13%

Q: What about the growth at 1 µM (NCI-H522 [12]) of the same compound?
A: 84%

Q: And the growth at 10 µM (MDA-MB-468)?
A: -45%

Q: And the growth at 100 µM (HL-60(TB))?
A: -38%

Q: What about the growth at 1 µM (ACHN [13]) of the same compound?
A: 94%

Q: What about the growth at 0.1 µM (BT-549) of the same compound?
A: 99%

Q: What about the growth at 10 µM (COLO 205 [14]) of the same compound?
A: 14%

Q: What about the LC50 (concentration killing 50% of cells) (SK-MEL-5 [15]) of the same compound?
A: 46.4 µM

Q: And the TGI (SK-MEL-5 [15])?
A: 19.9 µM

Q: And the growth at 0.01 µM (M14)?
A: 98%

Q: What about the growth at 1 µM (OVCAR-4) of the same compound?
A: 65%

Q: And the growth at 100 µM (NCI-H23 [16])?
A: -67%

From ChEMBL document CHEMBL4138123, “Design, synthesis and biological evaluation of novel pyrazolochalcones as potential modulators of PI3K/Akt/mTOR pathway and inducers of apoptosis in breast cancer cells” (Eur J Med Chem, 2017)
